From patent US20250195513A1, “DEGRADATION OF IRAK4 BY CONJUGATION OF IRAK4 INHIBITORS WITH E3 LIGASE LIGAND AND METHODS OF USE” (BeiGene, Ltd., priority 2022, published 2025)

Assays:
Type in all cases: cell-based
IRAK4 [1] = target: T1, IRAK4 (Homo sapiens, UniProt Q9NWZ3); assay: IRAK4 Degradation Assay (Karpas299, HTRF/TR-FRET); details: Karpas-299 cells; for Dmax: maximum percentage of degradation
T1 construct: endogenous in cells; host or cells: Karpas299
T1 sequence (Q9NWZ3 1-460): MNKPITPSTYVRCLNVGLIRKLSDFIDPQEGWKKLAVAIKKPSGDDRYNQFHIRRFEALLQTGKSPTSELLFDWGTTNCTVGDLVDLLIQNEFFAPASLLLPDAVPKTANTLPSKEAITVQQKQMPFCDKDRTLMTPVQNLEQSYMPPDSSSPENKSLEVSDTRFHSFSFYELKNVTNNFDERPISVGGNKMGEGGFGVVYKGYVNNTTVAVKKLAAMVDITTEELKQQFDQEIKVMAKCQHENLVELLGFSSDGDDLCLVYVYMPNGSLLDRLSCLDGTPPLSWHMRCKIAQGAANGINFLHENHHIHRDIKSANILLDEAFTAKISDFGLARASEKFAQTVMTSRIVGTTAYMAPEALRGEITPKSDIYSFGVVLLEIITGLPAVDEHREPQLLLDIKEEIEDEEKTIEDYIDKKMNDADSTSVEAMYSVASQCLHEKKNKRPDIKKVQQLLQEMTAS
Summary of the method: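 Karpas299 cells at 0.2 million per well were exposed to serially diluted compounds for 24 h or 5 h, then lysed. IRAK4 remaining in lysates was quantified by HTRF (665/620 nm) after overnight antibody incubation at room temperature. Percent degradation was fitted to a four-parameter curve to give IC50 (DC50).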

IRAK4 [2] = target: T1, IRAK4; assay: IRAK4 Degradation Assay with Human Serum (Karpas299, HTRF/TR-FRET); details: Karpas-299 in human serum, 24 hrs treatment; for DC50: read-out: IRAK4 degradtion with human serum assay DC50; for Dmax: read-out: IRAK4 degradtion with human serum assay Dmax (%)
Summary of the method: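 Karpas299 cells in human AB serum (0.2 million/well) treated with serial compound dilutions for 24 h. After lysis, IRAK4 quantified by HTRF (overnight antibody incubation at room temperature, 665/620 nm read). Degradation percentage fitted to four-parameter curve to give DC50.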

[3] = system: TNF-α production in THP-1 cells; assay: TNF-α Production Assay in THP-1 Cells (LPS stimulated); details: Homo sapiens, THP-1, 24 h; for Emax: maximum inhibition, read-out: TNF-α (THP-1) 24 h IMax
Summary of the method: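 Cells (0.2 million/well) pretreated with compounds for 24 h, then stimulated with LPS at 1 μg/mL final for 24 h. TNF-α in culture supernatant quantified by TR-FRET immunoassay.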

[4] = system: IL-6 production in human PBMC; assay: IL-6 Production Assay in Human PBMC (LPS stimulated); details: Homo sapiens, 5 h; for Emax: maximum inhibition, read-out: IL-6 (PBMC) 5 h IMax
Summary of the method: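 Thawed PBMC were rested overnight at 37 °C, seeded at 0.2 million cells/well and pretreated with compounds for 24 h. They were then stimulated with LPS at 10 ng/mL for 5 h. IL-6 in the supernatant was quantified by TR-FRET.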

[5] = 5 h treatment, read-out: IRAK4 in Karpas-299 (5 h) Dmax (%)
[6] = 5 h treatment, read-out: IRAK4 in Karpas-299 (5 h) DC50
[7] = 24 h treatment, read-out: IRAK4 in Karpas-299 (24 h) Dmax (%)
[8] = 24 h treatment, read-out: IRAK4 in Karpas-299 (24 h) DC50

Dmax (IRAK4 [1]; [5]) [%]	DC50 (IRAK4 [1]; [6]) [nM]	Dmax (IRAK4 [1]; [7]) [%]	DC50 (IRAK4 [1]; [8]) [nM]	DC50 (IRAK4 [2]) [nM]	Dmax (IRAK4 [2]) [%]	IC50 [3] [nM]	Compound	Emax [3] [%]	IC50 [4] [nM]	Emax [4] [%]
97	1.9	100	0.7	2.9	95	13	COC[C@@H]1CN(CC2CN(c3cc(F)c([C@H]4CCC(=O)NC4=O)c(F)c3)C2)CCN1[C@H]1CC[C@H](n2cc3cc(NC(=O)c4ccc5cc(C#N)cnn45)c(C(C)(C)O)cc3n2)CC1 [Example 326, 3-cyano-N-(2-((1S,4r)-4-((S)-4-((1-(4-((R)-2,6-dioxopiperidin-3-yl)-3,5-difluorophenyl)azetidin-3-yl)methyl)-2-(methoxymethyl)piperazin-1-yl)cyclohexyl)-6-(2-hydroxypropan-2-yl)-2H-indazol-5-yl)pyrrolo[1,2-b]pyridazine-7-carboxamide]	99	1.9	65
96	2.3	98	0.3	3.7	99	33	CC(C)(O)c1cc2nn([C@H]3CC[C@H](N4CCN(CCc5cc(F)c([C@H]6CCC(=O)NC6=O)c(F)c5)CC4)CC3)cc2cc1NC(=O)c1ccc2cc(C#N)cnn12 [Example 182, 3-cyano-N-(2-((1R,4r)-4-(4-(4-((R)-2,6-dioxopiperidin-3-yl)-3,5-difluorophenethyl)piperazin-1-yl)cyclohexyl)-6-(2-hydroxypropan-2-yl)-2H-indazol-5-yl)pyrrolo[1,2-b]pyridazine-7-carboxamide]	71	2.5	64
–	–	98	0.8	4.8	99	43	C[C@@H]1CN(CCc2cc(F)c([C@H]3CCC(=O)NC3=O)c(F)c2)CCN1[C@H]1CC[C@H](n2cc3cc(NC(=O)c4ccc5cc(C#N)cnn45)c(C(C)(C)O)cc3n2)CC1 [Example 299, 3-cyano-N-(2-((1R,4r)-4-((R)-4-(4-((R)-2,6-dioxopiperidin-3-yl)-3,5-difluorophenethyl)-2-methylpiperazin-1-yl)cyclohexyl)-6-(2-hydroxypropan-2-yl)-2H-indazol-5-yl)pyrrolo[1,2-b]pyridazine-7-carboxamide]	94	4	74
